Source: patent US20060167109A1, “Methods of reducing rhinovirus contagion and related compositions” (priority 2002, published 2006)

Assays:
Assay in all cases: HRV cytopathic effect assay
Assay type in all cases: cell-based
Conditions in all cases: Human rhinovirus sp.
HRV serotype 39 = system: HRV serotype 39
Protocol: (§1) For sensitivity testing to pleconaril, the appropriate cells were seeded into 96 well plates at a concentration of 4×10^4/well. After an overnight incubation at 37° C., the medium was removed and the cells were infected with 150 μL of a dilution of virus previously titrated to give ≧85% lysis of the monolayer after 3 days of incubation. The plates were incubated for 1 hour at the appropriate temperature and then overlaid with 50 μL of medium containing serial 2-fold dilutions of pleconaril in 2% DMSO. The final DMSO concentration in the assay was always 0.5%. No virus and no pleconaril controls were included on each plate. All drug concentrations were run in quadruplicate. The plates were then incubated for 3 days at the appropriate temperature followed by processing as described above.

HRV serotype 50 = system: HRV serotype 50
Protocol: as §1

HRV serotype 45 = system: HRV serotype 45
Protocol: as §1

HRV serotype 94 = system: HRV serotype 94
Protocol: as §1

HRV serotype 16 = system: HRV serotype 16
Protocol: as §1

HRV serotype 46 = system: HRV serotype 46
Protocol: as §1

HRV serotype 87 = system: HRV serotype 87
Protocol: as §1

HRV serotype 84 = system: HRV serotype 84
Protocol: as §1

HRV serotype 18 = system: HRV serotype 18
Protocol: as §1

HRV serotype 21 = system: HRV serotype 21
Protocol: as §1

HRV serotype 59 = system: HRV serotype 59
Protocol: as §1

HRV serotype 15 = system: HRV serotype 15
Protocol: as §1

HRV serotype 67 = system: HRV serotype 67
Protocol: as §1

HRV serotype 44 = system: HRV serotype 44
Protocol: as §1

HRV serotype 75 = system: HRV serotype 75
Protocol: as §1

HRV serotype 22 = system: HRV serotype 22
Protocol: as §1

HRV serotype 81 = system: HRV serotype 81
Protocol: as §1

HRV serotype 62 = system: HRV serotype 62
Protocol: as §1

HRV serotype 8 = system: HRV serotype 8
Protocol: as §1

HRV serotype 90 = system: HRV serotype 90
Protocol: as §1

HRV serotype 54 = system: HRV serotype 54
Protocol: as §1

HRV serotype 72 = system: HRV serotype 72
Protocol: as §1

HRV serotype 5 = system: HRV serotype 5
Protocol: as §1

HRV serotype 23 = system: HRV serotype 23
Protocol: as §1

HRV serotype 9 = system: HRV serotype 9
Protocol: as §1

HRV serotype 58 = system: HRV serotype 58
Protocol: as §1

HRV serotype 34 = system: HRV serotype 34
Protocol: as §1

HRV serotype 56 = system: HRV serotype 56
Protocol: as §1

HRV serotype 47 = system: HRV serotype 47
Protocol: as §1

HRV serotype 35 = system: HRV serotype 35
Protocol: as §1

HRV serotype 74 = system: HRV serotype 74
Protocol: as §1

HRV serotype 93 = system: HRV serotype 93
Protocol: as §1

HRV serotype 95 = system: HRV serotype 95
Protocol: as §1

HRV serotype 6 = system: HRV serotype 6
Protocol: as §1

HRV serotype 38 = system: HRV serotype 38
Protocol: as §1

HRV serotype 7 = system: HRV serotype 7
Protocol: as §1

HRV serotype 26 = system: HRV serotype 26
Protocol: as §1

HRV serotype 17 = system: HRV serotype 17
Protocol: as §1

HRV serotype 89 = system: HRV serotype 89
Protocol: as §1

HRV serotype 27 = system: HRV serotype 27
Protocol: as §1

HRV serotype 60 = system: HRV serotype 60
Protocol: as §1

HRV serotype 66 = system: HRV serotype 66
Protocol: as §1

HRV serotype 79 = system: HRV serotype 79
Protocol: as §1

HRV serotype 49 = system: HRV serotype 49
Protocol: as §1

HRV serotype 98 = system: HRV serotype 98
Protocol: as §1

## Cc1cc(CCCOc2c(C)cc(-c3noc(C(F)(F)F)n3)cc2C)on1 [pleconaril, 3-[3,5-dimethyl-4-[3-(3-methyl-5-isoxazolyl)propoxy]phenyl]-5-(trifluoromethyl)-1,2,4-oxadiazole]
HRV serotype 39
  IC50: 0.01 µM
HRV serotype 50; HRV50, Table 2, mean of at least two independent determinations
  IC50: 0.35 ± 0.07 µM
HRV serotype 50; serotype 50
  IC50: 0.35 ± 0.07 µM
HRV serotype 45
  IC50: 4.3 ± 1.83 µM
HRV serotype 94
  IC50: 1.1 ± 0.44 µM
HRV serotype 16
  IC50: 0.57 ± 0.19 µM
HRV serotype 46
  IC50: 0.16 ± 0.05 µM
HRV serotype 87
  IC50: > 12.5 µM
HRV serotype 84
  IC50: > 12.5 µM
HRV serotype 18
  IC50: 0.24 ± 0.1 µM
HRV serotype 21
  IC50: 0.04 ± 0.01 µM
HRV serotype 59
  IC50: 0.78 ± 0.34 µM
HRV serotype 15
  IC50: 0.59 ± 0.29 µM
HRV serotype 67
  IC50: 0.25 ± 0.11 µM
HRV serotype 44
  IC50: 0.11 ± 0.07 µM
HRV serotype 75
  IC50: 0.11 ± 0.06 µM
HRV serotype 22
  IC50: 0.04 ± 0.02 µM
HRV serotype 81
  IC50: 0.3 ± 0.07 µM
HRV serotype 62
  IC50: 0.16 ± 0.06 µM
HRV serotype 8
  IC50: 3.42 ± 2.7 µM
HRV serotype 90
  IC50: 0.19 ± 0.06 µM
HRV serotype 54
  IC50: 0.46 ± 0.11 µM
HRV serotype 72
  IC50: 0.94 ± 0.3 µM
HRV serotype 5
  IC50: > 12.5 µM
HRV serotype 23
  IC50: 0.32 ± 0.01 µM
HRV serotype 9
  IC50: 0.22 ± 0.08 µM
HRV serotype 58
  IC50: 0.04 ± 0.03 µM
HRV serotype 34
  IC50: 0.09 ± 0.02 µM
HRV serotype 56
  IC50: 0.11 ± 0.06 µM
HRV serotype 47
  IC50: 0.01 µM
HRV serotype 35
  IC50: 0.04 ± 0.01 µM
HRV serotype 74
  IC50: 0.03 µM
HRV serotype 93
  IC50: > 12.5 µM
HRV serotype 95
  IC50: 0.81 ± 0.51 µM
HRV serotype 6
  IC50: 0.06 ± 0.02 µM
HRV serotype 38
  IC50: 0.1 ± 0.04 µM
HRV serotype 7
  IC50: 0.05 ± 0.01 µM
HRV serotype 26
  IC50: 1.6 ± 0.6 µM
HRV serotype 17
  IC50: 0.23 ± 0.08 µM
HRV serotype 89; HRV89, Table 2, mean of at least two independent determinations
  IC50: 0.05 ± 0.01 µM
HRV serotype 89; serotype 89
  IC50: 0.05 ± 0.01 µM
HRV serotype 27
  IC50: 5.9 ± 1.9 µM
HRV serotype 60
  IC50: 0.48 ± 0.14 µM
HRV serotype 66
  IC50: 0.11 ± 0.07 µM
HRV serotype 79
  IC50: 0.04 ± 0.06 µM
HRV serotype 49
  IC50: 0.17 ± 0.06 µM
HRV serotype 98
  IC50: 1.8 ± 1.62 µM
